Assay results reported in publication PMC3412796, “High-Throughput Screening and Rapid Inhibitor Triage Using an Infectious Chimeric Hepatitis C Virus” (PLoS ONE, 2012).
Marks after values point to notes of the source that are not given here.

What was measured:
gt 1a/2a-Rluc virus [1] = assay: Multi-cycle virus growth assay, Renilla luciferase readout (HTS); conditions: for inhibition of luciferase expression: MOI 0.05, EI 1 µM added 16 h post-entry, LY411575 0.5 µM
Experimental: For compound library screening, infections were performed in 384-well plates by pre-mixing 400 ffu of gt 1a/2a-Rluc virus with 1×10^4 Huh-7.5 cells and dispensing 50 µl on top of 150 nl of compound in DMSO (final 0.3% DMSO) followed by incubation at 37°C. Renilla luciferase activity, reflecting the degree of virus replication, was measured 96 h after infection using the EnduRen reagent (Promega). […] Maximum activity (100% of control) and background were derived from control wells containing DMSO alone or from uninfected wells, respectively. The individual signals in each of the compound test wells were then divided by the averaged control values (wells lacking inhibitor), after background subtraction, and multiplied by 100% to determine percent activity. The corresponding % inhibition values were then calculated by subtracting this value from 100. Dose-response assays were performed in triplicate and average EC50 values (reflecting the concentration at which 50% inhibition of virus replication was achieved) were calculated using XLfit for Excel (ID Business Solutions, Burlington, MA). Cytotoxicity studies were performed in parallel using CellTiter-Glo (Promega). For high-content screening, virus and cells were prepared as above and 50 ul was dispensed into black 384 well optics plates (Thermo Scientific). At 96 h post-infection, cells were fixed for 20 min by adding 17 ul of 16% paraformaldehyde (Electron Microscopy Sciences) to achieve 4% final fixative. Cells were washed and permeabilized twice for 10 min each with PBS containing 1% TX-100 and 0.05% Tween-20 (wash buffer) and blocked for 15 min with PBS with 2% BSA (blocking buffer). […] The total number of cells per well (Hoechst staining) and infected cells per well (HCV Core) was measured using a Cellomics ArrayScan HCS Reader (Thermo Scientific) and EC50 values calculated as described above.

gt 1a/2a-Rluc virus [2] = assay: HCV Core Cellomics ArrayScan assay (HCS); conditions: 96 h, Huh-7.5 cells, HCV Core Cellomics readout, average ± SD of at least three experiments
Experimental: For compound library screening, infections were performed in 384-well plates by pre-mixing 400 ffu of gt 1a/2a-Rluc virus with 1×10^4 Huh-7.5 cells and dispensing 50 µl on top of 150 nl of compound in DMSO (final 0.3% DMSO) followed by incubation at 37°C. Renilla luciferase activity, reflecting the degree of virus replication, was measured 96 h after infection using the EnduRen reagent (Promega). […] Maximum activity (100% of control) and background were derived from control wells containing DMSO alone or from uninfected wells, respectively. The individual signals in each of the compound test wells were then divided by the averaged control values (wells lacking inhibitor), after background subtraction, and multiplied by 100% to determine percent activity. The corresponding % inhibition values were then calculated by subtracting this value from 100. Dose-response assays were performed in triplicate and average EC50 values (reflecting the concentration at which 50% inhibition of virus replication was achieved) were calculated using XLfit for Excel (ID Business Solutions, Burlington, MA). Cytotoxicity studies were performed in parallel using CellTiter-Glo (Promega). […] The total number of cells per well (Hoechst staining) and infected cells per well (HCV Core) was measured using a Cellomics ArrayScan HCS Reader (Thermo Scientific) and EC50 values calculated as described above. […]

gt 1a/2a-Rluc virus [3] = assay: HCVcc infectious virus release assay; conditions: 2× EC90 of compound, 48 h pi
Experimental: Cells were incubated at 37°C for 48 h and supernatants were collected. Supernatants were clarified by centrifugation, diluted 20 fold and used to infect naïve Huh-7.5 cells in 96 well plates. Renilla luciferase expression was measured in both producer cells and target cells 48 h post-infection as described above.

gt 1a/2a-Rluc virus [4] = assay: Virus foci expansion by HCV Core immunofluorescence; type: cell-based, Hepatitis C virus; conditions: EI 1 µM added 16 h post-entry, LY411575 0.5 µM
gt 1a/2a-Rluc virus [5] = assay: HCVcc resistance selection; conditions: virus cultured at 5× EC50 up to 10 weeks or until resistance observed
Experimental: The gt 1a/2a-Rluc virus was used to infect Huh-7.5 cells and inhibitor was added 12 h post-infection at 5× EC50. Infection was allowed to progress for 96 h and cells were split 1∶1 with naïve Huh-7.5 cells in the presence of inhibitor and cultured for another 96 h. Viral supernatants were passed onto naïve Huh-7.5 cells in the presence of inhibitor and HCVcc replication in the presence of inhibitor was monitored by determining the spread of virus infection, using immunofluorescence (HCV Core), at each passage. Generally, virus stocks were prepared when HCVcc was ≥10-fold resistant relative to wild-type parental virus. The HCV genome was amplified by RT-PCR (Invitrogen), cloned and amino acid changes that arose during inhibitor selection were identified by analysis of the DNA sequence compared to the parent and control passages in the absence of inhibitor.

Molecule | Luciferase (EC50) (gt 1a/2a-Rluc virus [1]; 96 h, Huh-7.5 cells, Renilla luciferase readout, average ± SD of at least three experiments) | Cellomics (EC50) (gt 1a/2a-Rluc virus [2]) | % inhibition in a 96 h assay (gt 1a/2a-Rluc virus [1]; 384 well, 400 ffu of virus/well and 4,000 Huh7.5 cells (MOI = 0.1), 96 h) | inhibition of luciferase expression (gt 1a/2a-Rluc virus [1]; 48 h pi) | inhibition of luciferase expression (gt 1a/2a-Rluc virus [1]; 72 h pi) | inhibition of luciferase expression (gt 1a/2a-Rluc virus [1]; 96 h pi) | difference in potency at 96 h vs 48 h pi (multi- vs single-cycle) (gt 1a/2a-Rluc virus [1]; EC50 at 48 h vs 96 h pi) | EC50 (gt 1a/2a-Rluc virus [1]; read-out: Luciferase (EC50), 96 h, Huh-7.5 cells, Renilla luciferase readout, average ± SD of at least three experiments) | effect on Renilla luciferase expression in producer and target cells (gt 1a/2a-Rluc virus [3]) | EC50 (gt 1a/2a-Rluc virus [2]; read-out: Cellomics (EC50)) | size of HCV Core-positive virus foci (gt 1a/2a-Rluc virus [4]; 48 h pi, MOI 0.05, Huh-7.5) | inhibition of expansion of virus foci (gt 1a/2a-Rluc virus [4]; 96 h pi, MOI 0.05) | Fold Resistance (gt 1a/2a-Rluc virus [5])
IFNα | 0.20±0.04 ^b International units per ml | 0.17±0.08 ^b International units per ml |  |  |  |  |  |  |  |  |  |  | 
C[C@H](NC(=O)[C@@H](O)c1cc(F)cc(F)c1)C(=O)N[C@@H]1C(=O)N(C)c2ccccc2-c2ccccc21 [LY411575] |  |  | > 90% | < 20% | > 80% | > 90% | > 200 fold | 10 ± 3.3 nM | only affected Renilla luciferase expression in target cells | 11 ± 4.1 nM | 2.0±0.6 mean cells/foci | > 20 fold | did not select for resistance through ten weeks of culture and None
